Assay results from patent publication US9120749B2, “Quinoline derivatives and MELK inhibitors containing the same” (ONCOTHERAPY SCIENCE, INC., priority 2010, dated 2015).
Where a name gives a salt, the structure may show the parent alone.

Experiments:
MELK = MELK (Homo sapiens, UniProt Q14680); assay: Kinase assay: MELK activity, phosphorylation of FITC-labeled histone H3 peptide measured by IMAP fluorescence polarization; format: biochemical; details: MELK kinase assay, IMAP fluorescence polarization, 50 micro-M ATP; read-out: IC50 (μM) (kinase assay)
How it was run: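 A FITC-labelled histone H3 peptide served as substrate, with compounds serially diluted to 1% DMSO final. Reactions were stopped with three volumes of IMAP progressive binding solution. After 0.5 h at room temperature, fluorescence polarization was read.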

T47D cells = assay: Cell-based assay: anti-proliferative activity, Cell Counting Kit-8, 72 hours (T47D); details: Homo sapiens, T47D, 72 h
How it was run: (§1)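 T47D, A549 and BT-549 cells, with MELK-negative HT-1197 as control (MELK status checked by western blot), seeded at 2,000–3,000 cells/well. Growth measured by CCK-8 72 hours after inhibitor exposure; IC50 values calculated.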

A549 cells = assay: Cell-based assay: anti-proliferative activity, Cell Counting Kit-8, 72 hours (A549); details: Homo sapiens, A549, 72 h, 72 hours
How it was run: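 A549 cells were seeded in 96-well plates and exposed to candidate inhibitors for 72 hours. Cell growth was then measured with Cell Counting Kit-8, and IC50 values were calculated from the resulting growth data.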

HT-1197 cells = assay: Cell-based assay: anti-proliferative activity, Cell Counting Kit-8, 72 hours (HT-1197, negative control without MELK expression); details: Homo sapiens, HT1197, 72 h, HT1197 cells (negative control), 72 hours
How it was run: as §1

22Rv1 cells = assay: Cell-based assay: anti-proliferative activity, Cell Counting Kit-8, 72 hours (22Rv1); details: Homo sapiens
DU4475 cells = assay: Cell-based assay: anti-proliferative activity, Cell Counting Kit-8, 72 hours (DU4475); details: Homo sapiens, DU-4475

Sequence of MELK (Q14680 whole entry, looked up): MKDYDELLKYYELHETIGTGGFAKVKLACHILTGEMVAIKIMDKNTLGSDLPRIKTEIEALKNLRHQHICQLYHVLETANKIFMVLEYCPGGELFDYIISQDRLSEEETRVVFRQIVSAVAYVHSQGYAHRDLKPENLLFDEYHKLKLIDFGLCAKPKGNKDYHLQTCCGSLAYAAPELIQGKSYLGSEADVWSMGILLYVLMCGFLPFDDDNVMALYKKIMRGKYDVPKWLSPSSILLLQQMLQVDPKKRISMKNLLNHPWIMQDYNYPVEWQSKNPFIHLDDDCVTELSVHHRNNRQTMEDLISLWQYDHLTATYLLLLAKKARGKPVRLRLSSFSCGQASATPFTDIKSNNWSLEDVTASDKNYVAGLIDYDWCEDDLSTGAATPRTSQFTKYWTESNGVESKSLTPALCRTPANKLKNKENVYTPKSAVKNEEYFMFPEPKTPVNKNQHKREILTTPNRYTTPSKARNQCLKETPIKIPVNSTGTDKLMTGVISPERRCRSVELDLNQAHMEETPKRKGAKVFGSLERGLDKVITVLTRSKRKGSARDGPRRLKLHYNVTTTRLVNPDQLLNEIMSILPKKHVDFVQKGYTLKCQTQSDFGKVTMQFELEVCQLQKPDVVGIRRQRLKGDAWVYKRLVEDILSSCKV

Compound	IC50 (MELK)	IC50 (T47D cells)	IC50 (A549 cells)	IC50 (HT-1197 cells)	IC50 (22Rv1 cells)	IC50 (DU4475 cells)
CC(=O)c1cnc2ccc(-c3cc(F)c(O)c(Cl)c3)cc2c1N[C@H]1CC[C@H](NC(=O)C2CCCN2C)CC1 (stereo partly drawn) [Example 874, N-(1R,4R)-4-((3-acetyl-6-(3-chloro-5-fluoro-4-hydroxyphenyl)quinolin-4-yl)amino)cyclohexyl)-1-methylpyrrolidine-2-carboxamide hydrochloride]	0.016 µM	0.04 µM	0.14 µM	1 µM	0.18 µM	0.12 µM
CN1CCC(n2cc(Nc3c(S(C)(=O)=O)cnc4ccc(-c5cc(Cl)c(O)c(Cl)c5)cc34)cn2)CC1 [Example 899, 2,6-dichloro-4-(4-((1-(1-methyl-piperidin-4-yl)-1H-pyrazol-4-yl)amino)-3-(methylsulfonyl)quinolin-6-yl)phenol hydrochloride]	0.0017 µM	1.6 µM	4 µM	10 µM	1.5 µM	0.26 µM
CC(=O)c1cnc2cc(C)c(-c3cc(Cl)c(O)c(Cl)c3)cc2c1Nc1ccc(N2CCN(C)CC2)nc1 [Example 866, 1-(6-(3,5-dichloro-4-hydroxyphenyl)-7-methyl-4-((6-(4-methylpiperazin-1-yl)pyridin-3-yl)amino)quinolin-3-yl)ethanone hydrochloride]	0.34 µM	2.4 µM	2.3 µM	4.5 µM	4.1 µM	2.9 µM
CC(=O)c1cnc2ccc(-c3cc(Cl)c(O)c(Cl)c3)cc2c1Nc1cc(CCN2CCCC2)cnc1C [Example 897, 1-(6-(3,5-dichloro-4-hydroxyphenyl)-4-((2-methyl-5-(2-(pyrrolidin-1-yl)ethyl)pyridin-3-yl)amino)quinolin-3-yl)ethanone]	0.021 µM	4.5 µM	8.5 µM	71 µM	11 µM	8.8 µM
CC(=O)c1cnc2ccc(-c3cc(Cl)c(O)c(Cl)c3)cc2c1Nc1cnc(C)c(CCN2CCCC2)c1 [Example 871, 1-(6-(3,5-dichloro-4-hydroxyphenyl)-4-((6-methyl-5-(2-(pyrrolidin-1-yl)ethyl)pyridin-3-yl)amino)quinolin-3-yl)ethanone]	0.0028 µM	1.8 µM	0.4 µM	25 µM	0.82 µM	0.33 µM
COc1cc(-c2ccc3ncc(C(=O)C4CCCC4)c(N[C@H]4CC[C@H](CN(C)C)CC4)c3c2)cc(Cl)c1O [Example 916, (6-(3-chloro-4-hydroxy-5-methoxy-phenyl)-4-((1R,4R)-4-((dimethyl-amino)methyl)cyclohexyl)amino) quinolin-3-yl)(cyclopentyl) methanone hydrochloride]	0.0048 µM	1.2 µM	1.1 µM	3.1 µM	1.5 µM	1 µM
COc1cc(-c2ccc3ncc(C(=O)C4CCCC4)c(Nc4cccc(CCN5CCCC5)c4)c3c2)cc(Cl)c1O [Example 924, (6-(3-chloro-4-hydroxy-5-methoxy-phenyl)-4-((3-(2-(pyrrolidin-1-yl)ethyl)phenyl)amino)quinolin-3-yl) (cyclopentyl)methanone hydrochloride]	0.018 µM	3.2 µM	3.7 µM	3.3 µM	3 µM	1.8 µM
O=C(c1cnc2ccc(-c3cc(F)c(O)c(Cl)c3)cc2c1Nc1cncc(CCN2CCCC2)c1)C1CC1 [Example 882, (6-(3-chloro-5-fluoro-4-hydroxyphenyl)-4-((5-(2-(pyrrolidin-1-yl)ethyl)pyridin-3-yl)amino)quinolin-3-yl)(cyclopropyl)methanone]	0.019 µM	100 µM	0.27 µM	100 µM	3.1 µM	0.15 µM
CC(=O)c1cnc2cc(F)c(-c3cc(Cl)c(O)c(Cl)c3)cc2c1N[C@H]1CC[C@H](CN(C)C)CC1 [Example 903, 1-(6-(3,5-dichloro-4-hydroxyphenyl)-4-((1R,4R)-4-((dimethylamino)methyl)cyclohexyl)amino)-7-fluoroquinolin-3-yl)ethanone hydrochloride]	0.0017 µM	0.55 µM	0.36 µM	1.5 µM	0.27 µM	0.16 µM
CN1CCC(n2cc(Nc3c(C(=O)C(C)(C)C)cnc4ccc(-c5cc(Cl)c(O)c(Cl)c5)cc34)cn2)CC1 [Example 931, 1-(6-(3,5-dichloro-4-hydroxyphenyl)-4-((1-(1-methylpiperidin-4-yl)-1H-pyrazol-4-yl)amino)quinolin-3-yl)-2,2-dimethylpropan-1-one hydrochloride]	0.0062 µM	1.4 µM	1.8 µM	100 µM	2.1 µM	1.5 µM
CN(C)CCOc1ccc(Nc2c(S(C)(=O)=O)cnc3ccc(-c4cc(F)c(O)c(Cl)c4)cc23)cn1 [Example 885, 2-chloro-4-(4-((6-(2-(dimethylamino)ethoxy)pyridin-3-yl)amino)-3-(methylsulfonyl)quinolin-6-yl)-6-fluorophenol hydrochloride]	0.0083 µM	0.7 µM	3 µM	10 µM	2.5 µM	0.62 µM
CC(=O)c1cnc2ccc(-c3cc(F)c(O)c(Cl)c3)cc2c1Nc1cncc(CCN2CCCC2)c1 [Example 880, 1-(6-(3-chloro-5-fluoro-4-hydroxyphenyl)-4-((5-(2-(pyrrolidin-1-yl)ethyl)pyridin-3-yl)amino)quinolin-3-yl)ethanone hydrochloride]	0.04 µM	3.1 µM	1.8 µM	46 µM	7.4 µM	0.96 µM
CCN(CC)CCO[C@H]1CC[C@H](Nc2c(C(C)=O)cnc3ccc(-c4cc(F)c(O)c(Cl)c4)cc23)CC1 [Example 869, 1-(6-(3-chloro-5-fluoro-4-hydroxyphenyl)-4-((1R,4R)-4-(2-(diethylamino)ethoxy)cyclohexyl)amino)quinolin-3-yl)ethanone hydrochloride]	0.01 µM	0.084 µM	0.23 µM	0.7 µM	0.32 µM	0.26 µM
CC(=O)c1cnc2ccc(-c3ccc4[nH]ncc4c3)cc2c1N[C@H]1CC[C@H](CN(C)C)CC1 [Example 910, 1-(4-((1R,4R)-4-((dimethylamino)methyl)cyclohexyl)amino)-6-(1H-indazol-5-yl)quinolin-3-yl)ethanone hydrochloride]	0.1 µM	6 µM	2.6 µM	9.8 µM	3.4 µM	5.4 µM
CC(=O)c1cnc2ccc(-c3cc(F)c(O)c(Cl)c3)cc2c1N[C@H]1CC[C@H](NC(=O)[C@@H](N)C(C)(C)C)CC1 [Example 914, (S)-N-((1r,4S)-4-((3-acetyl-6-(3-chloro-5-fluoro-4-hydroxyphenyl)quinolin-4-yl)amino)cyclohexyl)-2-amino-3,3-dimethylbutanamide hydrochloride]	0.028 µM	0.075 µM	0.65 µM	3.6 µM	0.28 µM	0.19 µM
CS(=O)(=O)c1cnc2ccc(-c3cc(F)c(O)c(Cl)c3)cc2c1Nc1ccc(N2CCCC(N)C2)nc1 (stereo not drawn) [Example 909, 4-(4-(6-(3-aminopiperidin-1-yl)pyridin-3-ylamino)-3-(methylsulfonyl)quinolin-6-yl)-2-chloro-6-fluorophenol]	0.0016 µM	0.19 µM	2.8 µM	10 µM	0.44 µM	0.042 µM
CCC(=O)c1cnc2ccc(-c3cc(Cl)c(O)c(Cl)c3)cc2c1Nc1ccc(N2CCC[C@H](N)C2)nc1 [Example 934, (S)-1-(4-(6-(3-aminopiperidin-1-yl)pyridin-3-ylamino)-6-(3,5-dichloro-4-hydroxyphenyl)quinolin-3-yl)propan-1-one]	0.0012 µM	0.014 µM	0.034 µM	0.6 µM	0.02 µM	0.016 µM
CN(C)CCOc1ccc(Nc2c(S(C)(=O)=O)cnc3ccc(-c4cc(Cl)c(O)c(Cl)c4)cc23)cn1 [Example 884, 2,6-dichloro-4-(4-((6-(2-(dimethylamino)ethoxy)pyridin-3-yl)amino)-3-(methylsulfonyl)quinolin-6-yl)phenol hydrochloride]	0.0035 µM	0.91 µM	2.1 µM	13 µM	4.1 µM	0.51 µM
[2H]C([2H])([2H])N(C[C@H]1CC[C@H](Nc2c(C(C)=O)cnc3ccc(-c4cc(Cl)c(O)c(Cl)c4)cc23)CC1)C([2H])([2H])[2H] [Example 864, 1-(6-(3,5-dichloro-4-hydroxyphenyl)-4-((trans-4-((dimethyl-d6-amino)methyl)cyclohexyl)amino)quinolin-3-yl)ethanone dihydrochloride]	0.0011 µM	0.067 µM	0.11 µM	1.3 µM	0.081 µM	0.043 µM
CC(=O)c1cnc2ccc(-c3ccc4nc[nH]c4c3)cc2c1Nc1ccc(OCCN(C)C)nc1 [Example 902, 1-(6-(1H-benzo[d]imidazol-6-yl)-4-((6-(2-(dimethylamino)ethoxy)pyridin-3-yl)amino)quinolin-3-yl) ethanone hydrochloride]	0.042 µM	3.3 µM	2.9 µM	12 µM	3.1 µM	14 µM
